Key:
PPARγ = target: T1, PPARγ (Homo sapiens, UniProt P37231); test: commercial PPARγ binding assay (Invitrogen; PPAR-LBD/Fluormone PPAR Green complex); settings: for Binding to PPARγ (Fluormone displacement signal): mean of three experiments
T1 construct: purchased Invitrogen Corporation, Carlsbad, Calif
T1 sequence (P37231 238-503 limits assumed): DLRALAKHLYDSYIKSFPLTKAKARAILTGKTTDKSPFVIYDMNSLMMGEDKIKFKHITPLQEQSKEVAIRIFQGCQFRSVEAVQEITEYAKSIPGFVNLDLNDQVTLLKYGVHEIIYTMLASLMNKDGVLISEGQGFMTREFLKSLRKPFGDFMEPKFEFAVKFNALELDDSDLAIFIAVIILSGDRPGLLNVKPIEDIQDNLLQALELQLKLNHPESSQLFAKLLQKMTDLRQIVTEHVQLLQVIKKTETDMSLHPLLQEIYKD
Description: The ability of several exemplary compounds of the present invention, shown in Table A, to bind to PPARγ was measured using a commercial binding assay (Invitrogen Corporation, Carlsbad, Calif.) that measures the test compounds ability to bind with PPAR-LBD/Fluormone PPAR Green complex. These assays were performed on three occasions with each assay using four separate wells (quadruplicate) at each concentration of tested compound. The data are mean and SEM of the values obtained from the three experiments. […] Compounds were added at the concentrations shown, which range from 0.1-100 micromolar.

[1] = test system: Male Dahl salt-sensitive rats; test: Antihypertensive action in hypertensive Dahl salt-sensitive rats (high salt diet), mean blood pressure by direct femoral arterial cannulation; format: in vivo, rat; settings: oral gavage daily, Compound 1 40 mg/kg/day, HCTZ 5 mg/kg/day
Description: Male Dahl salt-sensitive rats were made hypertensive by feeding of a high salt diet (4% salt) for 3 weeks and then treated daily with the indicated dose of hydrochlorothiazide (HCTZ), compound 1, or the combination of HCTZ and compound 1, as compared to the vehicle alone (1% carboxymethylcellulose/0.01% Tween 20) by oral gavage for 8 days. Mean blood pressure was measured by direct femoral arterial cannulation under fed conditions on day 7 and after a 6 hour fast on day 8.
Referring to FIG. 2 and Table C above, the antihypertensive action of compound 1 is additive with hydrocholothiazide (HCTZ). Data are mean and (SEM) mean blood pressure taken by direct cannulation. N=5; * p<0.05 less than blood pressure in HCTZ-treated rats.

Row | SMILES | Binding to PPARγ (Fluormone displacement signal) (PPARγ; 1 μM compound) | Binding to PPARγ (Fluormone displacement signal) (PPARγ; 3 μM compound) | Binding to PPARγ (Fluormone displacement signal) (PPARγ; 10 μM compound) | Binding to PPARγ (Fluormone displacement signal) (PPARγ; 50 μM compound) | Binding to PPARγ (Fluormone displacement signal) (PPARγ; 100 μM compound) | Binding to PPARγ (Fluormone displacement signal) (PPARγ; .1 μM compound) | Binding to PPARγ (Fluormone displacement signal) (PPARγ; .3 μM compound) | binding to PPARγ (in words) (PPARγ; FIG. 1 and Table B) | Mean blood pressure, Fasted ([1]; 6 hour fast, day 8) | Mean blood pressure, Fed ([1]; fed, day 7)
1 | CCc1ccc([C@@H](O)COc2ccc(CC3SC(=O)NC3=O)cc2)nc1 (stereo partly drawn) [Compound 2] | 238 | 236 | 223 | 162 | 136 | 231 | 233 | particularly poor binders |  | 
2 | CCc1ccc([C@H](O)COc2ccc(CC3SC(=O)NC3=O)cc2)nc1 (stereo partly drawn) [Compound 3] | 203 | 185 | 134 | 88 | 77 | 226 | 221 |  |  | 
3 | CCc1ccc(C(O)COc2ccc(CC3(C)SC(=O)NC3=O)cc2)nc1 (stereo not drawn) [Compound 5] | 228 | 226 | 212 | 132 | 106 | 235 | 230 |  |  | 
4 | CCc1ccc([C@@H](O)COc2ccc(CC3(C)SC(=O)NC3=O)cc2)nc1 (stereo partly drawn) [Compound 8] | 239 | 241 | 233 | 199 | 186 | 237 | 243 |  |  | 
5 | CCc1ccc(C(=CC(=O)OC)COc2ccc(CC3SC(=O)NC3=O)cc2)nc1 (stereo not drawn) [Compound 11] | 232 | 229 | 165 | 128 | 78 | 230 | 227 |  |  | 
6 | CCc1ccc(C(COc2ccc(CC3SC(=O)NC3=O)cc2)CC(=O)OC)nc1 (stereo not drawn) [Compound 12] | 198 | 155 | 112 | 80 | 85 | 243 | 222 |  |  | 
7 | CCc1ccc(C(=CCO)COc2ccc(CC3SC(=O)NC3=O)cc2)nc1 (stereo not drawn) [Compound 13] | 229 | 230 | 204 | 148 | 108 | 244 | 243 |  |  | 
8 | NS(=O)(=O)c1cc2c(cc1Cl)NCNS2(=O)=O [HCTZ, hydrochlorothiazide, reference compound] |  |  |  |  |  |  |  |  | 155 | 170

The next lines start with results.

Row | Binding to PPARγ (Fluormone displacement signal) (PPARγ; 1 μM compound) | Binding to PPARγ (Fluormone displacement signal) (PPARγ; 3 μM compound) | Binding to PPARγ (Fluormone displacement signal) (PPARγ; 10 μM compound) | Binding to PPARγ (Fluormone displacement signal) (PPARγ; 50 μM compound) | Binding to PPARγ (Fluormone displacement signal) (PPARγ; 100 μM compound) | Binding to PPARγ (Fluormone displacement signal) (PPARγ; .1 μM compound) | Binding to PPARγ (Fluormone displacement signal) (PPARγ; .3 μM compound) | SMILES | binding to PPARγ (in words) (PPARγ; FIG. 1 and Table B) | Mean blood pressure, Fasted ([1]; 6 hour fast, day 8) | Mean blood pressure, Fed ([1]; fed, day 7)
9 | 234 | 224 | 200 | 122 | 91 | 236 | 230 | CCc1ccc(CCOc2ccc(CC3(C)SC(=O)NC3=O)cc2)nc1 (single isomer, unassigned) [Compound 4] |  |  | 
10 | 233 | 223 | 198 | 126 | 99 | 246 | 246 | CCc1ccc(CCOc2ccc(CC3(C)SC(=O)NC3=O)cc2)nc1 (single isomer, unassigned) [Compound 6] |  |  | 
11 | 248 | 237 | 210 | 144 | 105 | 249 | 246 | CCc1ccc(CCOc2ccc(CC3(C)SC(=O)NC3=O)cc2)nc1 (single isomer, unassigned) [Compound 7] |  |  | 
12 | 239 | 233 | 234 | 189 | 164 | 237 | 237 | CCc1ccc([C@H](O)COc2ccc(CC3(C)SC(=O)NC3=O)cc2)nc1 (stereo partly drawn) [Compound 9] |  |  | 
13 | 240 | 234 | 219 | 126 | 93 | 245 | 239 | CCc1ccc(C(=O)COc2ccc(CC3(C)SC(=O)NC3=O)cc2)nc1 (stereo not drawn) [Compound 10] |  |  | 
